Reference: paper PMC8151276, “An Integrated Approach toward NanoBRET Tracers for Analysis of GPCR Ligand Engagement” (Molecules, 2021)

What was measured:
NPY5R = target: T1, NPY5R (Homo sapiens, UniProt Q15761); assay: NanoBRET screen HiBiT-NPY5R in HEK293; format: binding
T1 construct: purchased Promega (in-house HiBiT-GPCR construct library, NanoBRET)
T1 sequence (Q15761 1-445): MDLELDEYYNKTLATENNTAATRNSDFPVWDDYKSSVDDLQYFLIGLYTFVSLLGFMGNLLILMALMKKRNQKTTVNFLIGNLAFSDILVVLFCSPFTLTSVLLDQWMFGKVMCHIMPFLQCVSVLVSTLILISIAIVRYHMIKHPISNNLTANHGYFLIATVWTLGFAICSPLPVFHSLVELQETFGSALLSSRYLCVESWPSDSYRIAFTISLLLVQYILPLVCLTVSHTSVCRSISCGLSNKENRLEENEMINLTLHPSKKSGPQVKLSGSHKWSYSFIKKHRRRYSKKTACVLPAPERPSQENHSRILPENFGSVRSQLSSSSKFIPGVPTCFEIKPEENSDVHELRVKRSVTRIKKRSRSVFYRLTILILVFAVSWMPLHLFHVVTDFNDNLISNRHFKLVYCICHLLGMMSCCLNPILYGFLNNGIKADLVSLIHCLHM
Protocol: (§1) Each tracer candidate was screened across the entire library of HiBiT-GPCR constructs using NanoBRET as the detection modality. As depicted in Figure 4A, the specificity of interactions was evaluated through decrease in BRET due to competitive displacement of a bound tracer by excess parental compound. Each tracer was analyzed for binding to each HiBiT-GPCR fusion in the absence and in the presence of competing parental compound. Briefly, HEK293 cells were transfected with HiBiT-GPCR constructs diluted into promoterless DNA to reduce expression and maximize translocation to the cell surface. Each tracer candidate was then screened at concentrations of 1 μM and 0.1 μM across cells expressing these fusions. Cells were treated for 1.5 h with tracer either alone or in the presence of 20 μM competing parental compound (i.e., control). BRET was measured upon addition of purified LgBiT and subsequent complementation with HiBiT genetically fused to a GPCR. The specificity of interactions was assessed through a decrease in BRET signal due to competitive displacement of the bound tracer. To further gauge the robustness of these interactions, the fold response over the control (i.e., BRETtracer/BRETcontrol) was calculated. We chose a 1.5-fold response, which translates to ≥7-fold signal over noise as the minimal threshold required to score an interaction as positive.
(§2) HiBiT-GPCR DNA constructs were diluted in 10 mM Tris pH 8 to a final concentration of 0.01 μg/μL, arrayed in 96-well plates and stored at −20 °C. For transfection, HEK293 cells were suspended in Opti-MEM (without phenol red) supplemented with 2% fetal bovine serum (Seradigm) and 100 units/mL penicillin–streptomycin (Gibco) at a final concentration of 220,000 cells/mL and dispensed into white 96-well plates at 90 μL/well. Subsequent transfections and screens were carried using an Agilent Bravo Automated Liquid Handling Platform. First, the 96-well HiBiT DNA arrays were diluted 25-fold in Opti-MEM (without serum or phenol red) to a final concentration of 0.0004 μg/μL and 20 μL of the diluted DNAs were transferred into new 96-well plates. Next, promoterless carrier DNA (1 μg/μL) was diluted 25-fold (0.04 μg/μL) and then dispensed into the diluted arrays at 20 μL/well. Following brief mixing, Viafect transfection reagent (Promega) diluted 16-fold into Opti-MEM was dispensed into the plates at 40 μL/well. After mixing by pipetting, plates were incubated for 10 min on the pipetting station deck. The DNA-transfection reagent complexes were then added to plates containing cells. To facilitate the screen, 10 μL of DNA-transfection reagent complexes were added in duplicates to the top 4 and bottom 4 rows, resulting in two identical 48-well arrays per plate. Plates with transfected cells were incubated for 18–20 h at 37 °C/5% CO2. A screen of each tracer across the entire library using two different concentrations requires duplicate plates of transfected cells. Depending on the number of tracers being screened, transfections can be scaled up using the same ratios. The next day, for each tracer, four 20× screening solutions in tracer dilution buffer (Promega) were prepared: two duplicates at final concentration of 20 μM and two duplicates at a final concentration of 2 μM. […] The four resulting solutions were diluted 4-fold in Opti-MEM without serum or phenol red to generate 5× solutions (5 µM and 0.5 µM tracer +/− 100 μM competing compound). To screen the library, a BioTek MultiFlo FX liquid dispenser was used to dispense 22.5 µL of tracer solution to the top 4 rows and 22.5 µL tracer + competing compound solution to the 4 bottom rows. Plates were briefly mixed on an orbital shaker and incubated for 1.5 h at room temperature. […] Plates were briefly mixed on an orbital shaker and incubated for 15 min to allow complementation.

CYSLTR1 = target: T2, CYSLTR1 (Homo sapiens, UniProt Q9Y271); assay: NanoBRET screen HiBiT-CYSLTR1 in HEK293; format: binding
T2 construct: purchased Promega (in-house HiBiT-GPCR construct library, NanoBRET)
T2 sequence (Q9Y271 1-337): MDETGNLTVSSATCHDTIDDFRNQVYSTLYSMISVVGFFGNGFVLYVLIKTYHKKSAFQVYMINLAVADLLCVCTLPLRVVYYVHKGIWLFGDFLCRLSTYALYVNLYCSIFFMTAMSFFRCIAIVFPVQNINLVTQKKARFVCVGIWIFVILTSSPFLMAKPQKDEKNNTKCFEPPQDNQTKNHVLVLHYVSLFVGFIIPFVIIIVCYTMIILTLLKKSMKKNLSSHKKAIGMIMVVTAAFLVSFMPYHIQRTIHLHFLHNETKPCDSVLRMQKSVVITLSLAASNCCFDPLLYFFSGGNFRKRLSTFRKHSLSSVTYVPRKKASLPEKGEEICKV
Protocol: as §1, §2

Row | SMILES | NanoBRET Fold Response (NPY5R; NPY5R, tracer 0.1μM) | NanoBRET Fold Response (NPY5R; NPY5R, tracer 1μM) | NanoBRET Fold Response (CYSLTR1; CYSLTR1, tracer 0.1μM) | NanoBRET Fold Response (CYSLTR1; CYSLTR1, tracer 1μM) | also measured
1 | COc1ccc2c(n1)c(CCNC(C)=O)cn2CCNC(=O)CCc1ccc2n1[B-](F)(F)[N+]1=C(c3ccc[nH]3)C=CC1=C2 [Azamelatonin-1-NB590] | – | – | – | – | NanoBRET Fold Response (NPY5R; 0.1μM tracer): 1.14; NanoBRET Fold Response (NPY5R; 1μM tracer): 1.09; NanoBRET Fold Response (CYSLTR1; 0.1μM tracer): 0.81; NanoBRET Fold Response (CYSLTR1; 1μM tracer): 1.23
2 | CC(C)N(CC[C@H](c1ccccc1)c1cc(CCNC(=O)c2ccc(CNC(=O)CCc3ccc4n3[B-](F)(F)[N+]3=C(c5ccc[nH]5)C=CC3=C4)cc2)ccc1O)C(C)C [Tolterodine-BZ-NB590] | 1.05 | 0.99 | 0.97 | 0.99 | –
3 | O=C(CCc1ccc2n1[B-](F)(F)[N+]1=C(c3ccc[nH]3)C=CC1=C2)NCCOCCOCCNC(=O)OCCOCCN1CCN(C2=Nc3ccccc3Sc3ccccc32)CC1 [Quetiapine-a-2-NB590] | 0.98 | 0.87 | 0.90 | 1.08 | –
4 | Cc1cc2c(s1)Nc1ccccc1N=C2N1CCN(CCCNC(=O)CCOCCOCCOCCOCCNC(=O)CCc2ccc3n2[B-](F)(F)[N+]2=C(c4ccc[nH]4)C=CC2=C3)CC1 [Olanzapine-a-2-NB590] | 1.00 | 1.01 | 1.00 | 1.06 | –
5 | O=C(CCc1ccc2n1[B-](F)(F)[N+]1=C(c3ccc[nH]3)C=CC1=C2)NCc1ccc(C(=O)NCCOCCOCCNCC(O)COc2cccc3ccccc23)cc1 (stereo not shown) [Propranolol-3-NB590] | – | – | – | – | NanoBRET Fold Response (NPY5R; NPY5R, 0.1μM): 0.99; NanoBRET Fold Response (NPY5R; NPY5R, 1μM): 1.01; NanoBRET Fold Response (CYSLTR1; CYSLTR1, 0.1μM): 0.71
6 | CN1CCN(C2=Nc3cc(Cl)ccc3N(CC(=O)NCCOCCOCCOCCOCCNC(=O)CCc3ccc4n3[B-](F)(F)[N+]3=C(c5ccc[nH]5)C=CC3=C4)c3ccccc32)CC1 [Clozapine-c-2-NB590] | – | – | – | – | NanoBRET Fold Response (NPY5R; NPY5R, 0.1μM tracer): 0.99; NanoBRET Fold Response (NPY5R; NPY5R, 1μM tracer): 0.97; NanoBRET Fold Response (CYSLTR1; CYSLTR1, 0.1μM tracer): 0.90
7 | O=C(CCc1ccc2n1[B-](F)(F)[N+]1=C(c3ccc[nH]3)C=CC1=C2)NCc1ccc(C(=O)NCCOCCC(=O)N[C@@H]2CC[C@@]3(O)[C@H]4Cc5ccc(O)c6c5[C@@]3(CCN4CC3CC3)[C@H]2O6)cc1 [Naltrexone-3-NB590] | – | – | 0.74 | 1.09 | –
8 | CC(C)N(CC[C@H](c1ccccc1)c1cc(CCNC(=O)CCOCCOCCOCCOCCNC(=O)CCc2ccc3n2[B-](F)(F)[N+]2=C(c4ccc[nH]4)C=CC2=C3)ccc1O)C(C)C [Tolterodine-2-NB590] | 0.95 | 0.95 | 0.86 | 0.91 | –
9 | Cc1nc2n(c(=O)c1CCN1CCC(c3noc4cc(F)ccc34)CC1)CCCC2OC(=O)NCCOCCOCCOCCOCCNC(=O)CCc1ccc2n1[B-](F)(F)[N+]1=C(c3ccc[nH]3)C=CC1=C2 (stereo not shown) [Risperidone-2-NB590] | 0.97 | 0.96 | 0.97 | 0.94 | –
10 | O=C(CCOCCOCCOCCOCCNC(=O)CCc1ccc2n1[B-](F)(F)[N+]1=C(c3ccc[nH]3)C=CC1=C2)NCCCN1CCN(C2=Nc3cc(Cl)ccc3Nc3ccccc32)CC1 [Clozapine-a-2-NB590] | – | – | – | – | NanoBRET Fold Response (NPY5R; NPY5R, 0.1μM tracer): 1.15; NanoBRET Fold Response (NPY5R; NPY5R, 1μM tracer): 0.96; NanoBRET Fold Response (CYSLTR1; CYSLTR1, 0.1μM tracer): 0.98; NanoBRET Fold Response (CYSLTR1; CYSLTR1, 1μM tracer): 1.11
11 | COc1ccc2[nH]c(-c3ccc(CNC(=O)CCOCCOCCOCCOCCNC(=O)CCc4ccc5n4[B-](F)(F)[N+]4=C(c6ccc[nH]6)C=CC4=C5)cc3)c(CCNC(C)=O)c2n1 [AzomelatoninICO9-2-NB590] | – | – | – | – | NanoBRET Fold Response (NPY5R; 0.1μM tracer): 0.91; NanoBRET Fold Response (NPY5R; 1μM tracer): 1.07; NanoBRET Fold Response (CYSLTR1; 0.1μM tracer): 0.86; NanoBRET Fold Response (CYSLTR1; 1μM tracer): 0.91
12 | CN1CCN(C2=Nc3cc(Cl)ccc3Nc3ccc(CNC(=O)CCOCCOCCOCCOCCNC(=O)CCc4ccc5n4[B-](F)(F)[N+]4=C(c6ccc[nH]6)C=CC4=C5)cc32)CC1 [Clozapine-b-2-NB590] | – | – | – | – | NanoBRET Fold Response (NPY5R; NPY5R, 0.1μM tracer): 1.02; NanoBRET Fold Response (NPY5R; NPY5R, 1μM tracer): 1.04; NanoBRET Fold Response (CYSLTR1; CYSLTR1, 0.1μM tracer): 1.10
13 | COc1ccccc1N1CCN(CCCCN2C(=O)c3ccc(CNC(=O)CCOCCNC(=O)c4ccc(CNC(=O)CCc5ccc6n5[B-](F)(F)[N+]5=C(c7ccc[nH]7)C=CC5=C6)cc4)cc3C2=O)CC1 [NAN-190-3-NB590] | 1.01 | 0.97 | 1.15 | 1.30 | –
14 | N#CN=C(NCCCOc1cccc(CN2CCCCC2)c1)NCCNC(=O)CCOCCOCCOCCOCCNC(=O)CCc1ccc2n1[B-](F)(F)[N+]1=C(c3ccc[nH]3)C=CC1=C2 [Aminopotentidine-2-NB590] | 1.04 | 0.97 | 1.05 | 1.00 | –
15 | COc1ccccc1N1CCN(CCCCN2C(=O)c3ccc(CNC(=O)CCOCCOCCOCCOCCNC(=O)CCc4ccc5n4[B-](F)(F)[N+]4=C(c6ccc[nH]6)C=CC4=C5)cc3C2=O)CC1 [NAN-190-2-NB590] | – | – | 1.04 | 1.02 | –
16 | CN(C)CCC=C1c2ccccc2CCc2ccc(C(=O)NCCNC(=O)CCOCCOCCOCCOCCNC(=O)CCc3ccc4n3[B-](F)(F)[N+]3=C(c5ccc[nH]5)C=CC3=C4)cc21 [Amitriptyline-a-2-NB590] | – | – | – | – | NanoBRET Fold Response (NPY5R; tracer at 0.1μM): 1.03; NanoBRET Fold Response (NPY5R; tracer at 1μM): 0.99
